Patent US8716350B2, “Compositions and methods for the treatment of somatosensory disorders” (Algynomics Inc., priority 2010, dated 2014)
Entries after “also recorded” stand apart in the source; their conditions may differ. Read-outs that look alike come from different tables or passages of the source.

Columns and labels:
[1] = target: ADRB1 (Homo sapiens, UniProt P08588); conditions: cells transfected with ADRB1
[2] = target: T1, ADRB3 (Homo sapiens, UniProt P13945); format: cell-based; conditions: cells transfected with ADRB3
T1 construct: expressed in transfected cells; host or cells: HEK-293 co-expressing GloSensor-22F

[3] = test system: formalin-induced pain; assay: Formalin test (5% formalin, intraplantar), Example 6; format: in vivo, CD-1 (ICR:Crl) mice; conditions: 95% confidence interval in parentheses; for ED50: Mus musculus
[4] = test system: mechanical allodynia evoked by spared nerve injury; assay: Spared nerve injury, von Frey test; format: in vivo, CD-1 (ICR:Crl) mice; conditions: 60 mg/kg; 7 days postoperatively
Experimental: All behavioral experiments were performed on naive, adult (6-12 weeks of age) CD-1 (ICR:Crl) mice of both sexes that were bred in-house from breeders obtained from Charles River (Boucherville, QC). All mice were housed with their same-sex littermates (two to four animals per cage) in standard shoebox cages, maintained in a temperature-controlled (20±1° C.) environment (14/10 h light/dark cycle), and fed (Harlan Teklad 8604) and watered ad libitum. The up-down method of Dixon (1965) was used. Mice were placed on a perforated metal floor (with 5-mm diameter holes placed 7 mm apart) within small Plexiglas cubicles (9×5×5 cm high), and a set of eight calibrated von Frey fibers (Stoelting Touch Test Sensory Evaluator Kit #2 to #9; ranging from ≈0.015 g to ≈1.3 g of force) were applied to the plantar surface of the hind paw until the fibers bowed and then held for 3 s. The threshold force required to elicit withdrawal of the paw (median 50% withdrawal) was determined twice on each hind paw (and averaged) for all baseline measurements (except for the spared nerve injury experiments), with sequential measurements separated by at least 20 min. Following drug administration, one measurement per hind paw was taken at the indicated time point. […]

[5] = test system: thermal thresholds; assay: Radiant heat paw-withdrawal test (acute nociception); format: in vivo, CD-1 (ICR:Crl) mice; conditions: high dose; 20 min post-injection
Experimental: All behavioral experiments were performed on naive, adult (6-12 weeks of age) CD-1 (ICR:Crl) mice of both sexes that were bred in-house from breeders obtained from Charles River (Boucherville, QC). All mice were housed with their same-sex littermates (two to four animals per cage) in standard shoebox cages, maintained in a temperature-controlled (20±1° C.) environment (14/10 h light/dark cycle), and fed (Harlan Teklad 8604) and watered ad libitum. Mice were placed on glass floor within small Plexiglas cubicles as described above, and a focused high-intensity projector lamp beam was directed from below onto the mid-plantar surface of the hind paw (Hargreaves et al., 1988). The commercial device (IITC Model 336) was set to 20% active intensity. Latency to withdraw from the stimulus was measured to the nearest 0.1 s. Baseline measurements consisted of testing both hind paws twice on three separate occasions separated by at least 30 min. Following drug administration both hind paws were only tested once at the indicated time point.

[6] = test system: hind paw formalin test; assay: Hind paw formalin test (2.5% formaldehyde), Example 2; format: in vivo, mice; conditions: for late phase, C-fiber mediated responses (paw licking): late/tonic phase, last 50 minutes
[7] = test system: rotarod performance; conditions: for ataxia on the rotarod test (in words): 60 mg/kg, 20-80 min after injection; for ED50 for maximal ataxia: 60 min following drug administration, interval in parentheses
[8] = test system: λ-carrageenan thermal and mechanical allodynia; assay: Carrageenan hyperalgesia (radiant heat and von Frey); format: in vivo, CD-1 (ICR:Crl) mice
Experimental: All behavioral experiments were performed on naive, adult (6-12 weeks of age) CD-1 (ICR:Crl) mice of both sexes that were bred in-house from breeders obtained from Charles River (Boucherville, QC). All mice were housed with their same-sex littermates (two to four animals per cage) in standard shoebox cages, maintained in a temperature-controlled (20±1° C.) environment (14/10 h light/dark cycle), and fed (Harlan Teklad 8604) and watered ad libitum. The up-down method of Dixon (1965) was used. Mice were placed on a perforated metal floor (with 5-mm diameter holes placed 7 mm apart) within small Plexiglas cubicles (9×5×5 cm high), and a set of eight calibrated von Frey fibers (Stoelting Touch Test Sensory Evaluator Kit #2 to #9; ranging from ≈0.015 g to ≈1.3 g of force) were applied to the plantar surface of the hind paw until the fibers bowed and then held for 3 s. The threshold force required to elicit withdrawal of the paw (median 50% withdrawal) was determined twice on each hind paw (and averaged) for all baseline measurements (except for the spared nerve injury experiments), with sequential measurements separated by at least 20 min. Following drug administration, one measurement per hind paw was taken at the indicated time point. Mice were placed on glass floor within small Plexiglas cubicles as described above, and a focused high-intensity projector lamp beam was directed from below onto the mid-plantar surface of the hind paw (Hargreaves et al., 1988). The commercial device (IITC Model 336) was set to 20% active intensity. Latency to withdraw from the stimulus was measured to the nearest 0.1 s. Baseline measurements consisted of testing both hind paws twice on three separate occasions separated by at least 30 min. Following drug administration both hind paws were only tested once at the indicated time point. λ-Carrageenan (2%; 20 mg/ml; Sigma) was suspended by sonication in saline, and injected subcutaneously in a volume of 20 μl into the left plantar hindpaw using a 100 μL1 microsyringe with a 30-gauge needle. Mice were tested for thermal and mechanical sensitivity of both hind paws using the radiant heat paw withdrawal and von Frey tests before and 3 h post carrageenan injection. All drugs were injected immediately following the test for carrageenan hyperalgesia at the 3 h time point, and post-drug measurements were taken at 20, 40 and 60 min.

[9] = test system: mechanical thresholds; assay: Von Frey test (acute nociception); format: in vivo, CD-1 (ICR:Crl) mice; conditions: 10, 30, 60 mg/kg
Experimental: All behavioral experiments were performed on naive, adult (6-12 weeks of age) CD-1 (ICR:Crl) mice of both sexes that were bred in-house from breeders obtained from Charles River (Boucherville, QC). All mice were housed with their same-sex littermates (two to four animals per cage) in standard shoebox cages, maintained in a temperature-controlled (20±1° C.) environment (14/10 h light/dark cycle), and fed (Harlan Teklad 8604) and watered ad libitum. The up-down method of Dixon (1965) was used. Mice were placed on a perforated metal floor (with 5-mm diameter holes placed 7 mm apart) within small Plexiglas cubicles (9×5×5 cm high), and a set of eight calibrated von Frey fibers (Stoelting Touch Test Sensory Evaluator Kit #2 to #9; ranging from ≈0.015 g to ≈1.3 g of force) were applied to the plantar surface of the hind paw until the fibers bowed and then held for 3 s. The threshold force required to elicit withdrawal of the paw (median 50% withdrawal) was determined twice on each hind paw (and averaged) for all baseline measurements (except for the spared nerve injury experiments), with sequential measurements separated by at least 20 min. Following drug administration, one measurement per hind paw was taken at the indicated time point.

[10] = in vivo; conditions: mouse
[11] = target: T2, ADRB2 (Homo sapiens, UniProt P07550); assay: GloSensor cAMP-sensitive luciferase reporter assay, HEK-293 cells transfected with ADRB2; format: cell-based
T2 construct: expressed in transfected cells; host or cells: HEK-293 co-expressing GloSensor-22F

[12] = test system: cells transfected with only Sport6 vector without inserts; assay: GloSensor cAMP assay, cells transfected with only Sport6 vector without inserts; format: cell-based
[13] = 60 mg/kg, up to 60 min post-injection
[14] = 0-10 min post-injection of formalin
[15] = 10-60 min post-injection of formalin
[16] = S-ALG 517 60, 90 mg/kg, R-ALG 517 60, 90, 120 mg/kg, propranolol 10, 30, 60 mg/kg

Sequence of ADRB1 (P08588 whole entry, species assumed): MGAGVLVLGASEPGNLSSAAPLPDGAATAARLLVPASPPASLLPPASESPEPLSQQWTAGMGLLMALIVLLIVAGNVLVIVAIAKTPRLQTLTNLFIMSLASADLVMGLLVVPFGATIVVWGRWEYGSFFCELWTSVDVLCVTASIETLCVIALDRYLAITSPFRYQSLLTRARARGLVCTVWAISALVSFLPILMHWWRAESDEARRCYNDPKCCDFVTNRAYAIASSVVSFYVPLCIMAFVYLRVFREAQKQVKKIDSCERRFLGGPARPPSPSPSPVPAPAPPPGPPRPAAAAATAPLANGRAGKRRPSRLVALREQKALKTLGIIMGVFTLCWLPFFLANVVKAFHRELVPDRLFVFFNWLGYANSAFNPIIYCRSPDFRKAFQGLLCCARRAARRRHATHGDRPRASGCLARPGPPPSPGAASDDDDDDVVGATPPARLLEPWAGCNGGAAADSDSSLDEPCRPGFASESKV
T1 sequence (P13945 whole entry, species assumed): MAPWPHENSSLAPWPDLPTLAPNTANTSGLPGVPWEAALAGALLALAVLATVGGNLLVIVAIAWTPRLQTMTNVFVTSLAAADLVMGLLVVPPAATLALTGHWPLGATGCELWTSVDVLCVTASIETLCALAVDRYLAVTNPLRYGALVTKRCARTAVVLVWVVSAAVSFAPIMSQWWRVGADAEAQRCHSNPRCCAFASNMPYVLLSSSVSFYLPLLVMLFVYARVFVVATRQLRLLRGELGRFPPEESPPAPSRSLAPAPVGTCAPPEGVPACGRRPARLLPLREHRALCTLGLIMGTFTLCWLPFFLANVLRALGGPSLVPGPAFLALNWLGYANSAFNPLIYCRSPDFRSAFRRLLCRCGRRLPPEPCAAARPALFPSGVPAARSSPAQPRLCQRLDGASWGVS

Q: What does the source list for `Cc1ccc(OCC(O)C(C)NC(C)C)c2c1CCC2` (centres unmarked) [ICI118,551, 3-(isopropylamino)-1-[(7-methyl-4-indanyl)oxy]butan-2-ol]?
A: blockade of morphine stimulation of cAMP ([1]; antagonist 300 nM): partial blockade; blockade of morphine stimulation of cAMP ([2]; antagonist 300 nM): no blockade

Q: What does the source list for `Cc1ccc(Cl)c(OC[C@H](O)CNC(C)(C)C)c1` [R-ALG 517, R-tert-butyl[3-(2-chloro-5-methylphenoxy)-2-hydroxypropyl]amine]?
A: ED50 ([3]; 0-10 min post-injection of formalin, read-out: half-maximal analgesic dose (ED50), Early Phase): 46 mg/kg; ED50 ([3]; 10-60 min post-injection of formalin, read-out: half-maximal analgesic dose (ED50), Late Phase): 26.6 mg/kg; reversal of mechanical allodynia evoked by spared nerve injury [4]: reversed; thermal thresholds on the radiant heat test [5]: increased thermal thresholds; late phase, C-fiber mediated responses (paw licking) ([6]; 10 mg/kg): reduced; early, A-delta mediated phase responses (paw licking) ([6]; early/acute phase, first 5 min): not altered; ataxia / sedation on rotarod over the doses tested (in words) ([7]; mouse, in vivo): does not produce significant ataxia; reversal of thermal hyperalgesia ([8]; 10 mg/kg): transient reversal; reversal of mechanical hyperalgesia ([8]; 30 mg/kg): transient reversal; reversal of thermal hyperalgesia ([8]; 30 mg/kg): transient reversal; reversal of mechanical hyperalgesia [8, 13]: complete and sustained; reversal of thermal hyperalgesia [8, 13]: complete and sustained; mechanical thresholds on the von Frey test [9]: no effect; ED50 at 60 min [10]: 166 mg/kg

Q: What does the source list for `CC(C)NC[C@@H](O)COc1cccc2ccccc12` [R-propranolol]?
A: half-maximal analgesic dose (ED50), Early Phase [3, 14]: not calculable; half-maximal analgesic dose (ED50), Late Phase [3, 15]: not calculable

Q: What does the source list for `Cc1ccc(Cl)c(OC[C@@H](O)CNC(C)(C)C)c1` [S-ALG 517, S-tert-butyl[3-(2-chloro-5-methylphenoxy)-2-hydroxypropyl]amine]?
A: half-maximal analgesic dose (ED50), Early Phase [3, 14]: not calculable; half-maximal analgesic dose (ED50), Late Phase [3, 15]: not calculable; responses to the hind paw formalin test ([6]; 3 mg/kg): without effect; responses to the hind paw formalin test ([6]; 10 mg/kg): without effect; ataxia on the rotarod test (in words) [7]: only slight and possibly not even significant ataxia; ED50 for maximal ataxia [7]: 74 mg/kg; ataxia / sedation on rotarod over the doses tested (in words) [7, 16]: produce sedation at much lower doses

Q: Which “half-maximal analgesic dose (ED50), Early Phase” value [3, 14] does the source give for `CC(C)NCC(O)COc1cccc2ccccc12` (centres unmarked) [S-Propranolol] here?
A: The value was 35 mg/kg.

Q: What about the “half-maximal analgesic dose (ED50), Late Phase” value [3, 15] of the same molecule?
A: Its value is 25.46 mg/kg.

Q: Which results are given for `CN1CC[C@]23c4c5ccc(O)c4O[C@H]2[C@@H](O)C=C[C@H]3[C@H]1C5` [morphine]?
A: intracellular cAMP accumulation [1]: dose-dependent increases; ADRB2 agonist potency in comparison with other agonists (in words) [11]: most potent ADRB2 agonist; agonist potency at ADRB2 as compared to ADRB1 and ADRB3 [11]: 500-1000 times; agonist stimulation of cAMP production [11]: stimulated cAMP production; also recorded: dose-dependent increases; intrinsic activity at ADRB2 as compared to ADRB1 and ADRB3 [11]: about 10 times; intracellular cAMP accumulation [2]: dose-dependent increases; cAMP response [12]: did not evoke responses

Q: Which results are given for `CC(C)NCC(O)COc1cccc2ccccc12` (centres unmarked) [propranolol]?
A: half-maximal analgesic dose (ED50), Early Phase ([3]; 0-10 min post-injection of formalin, listed as racemic propranolol): 33 mg/kg; half-maximal analgesic dose (ED50), Late Phase ([3]; 10-60 min post-injection of formalin, listed as racemic propranolol): 21.3 mg/kg; late phase, C-fiber mediated responses (paw licking) ([6]; 10 mg/kg): reduced; ataxia on the rotarod test (in words) [7]: fall off the rotarod very rapidly; ED50 for maximal ataxia [7]: 4.76 mg/kg; ataxia / sedation on rotarod over the doses tested (in words) [7, 16]: produce sedation at much lower doses

Q: For dynorphin A, which “agonist stimulation of cAMP production” value [11] is on record?
A: Its value is “showed agonistic properties”.
